{"source": "patent US20240374769A1", "about": "“LIGHT ACTIVATED CLEANING COMPOSITION” (The Procter & Gamble Company, priority 2023, published 2024)", "key": {"[1]": {"experiment": "Thioxanthone depletion in solution under 365 nm irradiation (UV-Vis)", "format": "physicochemical", "method": "Solutions of photosensitizer (9-10 μM, 1 eq), […] (9-50 μM, 1-5 eq) and singlet oxygen quenching molecules (1-1000 equivalents) were prepared in a 10 mL volumetric flask either. Solvents for these studies were either 95:5 DI H2O:Ethanol or pure ethanol. A starting UV-Vis spectrum was obtained as a baseline. Solutions were irradiated in a quartz cuvette using appropriate LED's at a measured distance to ensure reproducible results. Spectra were collected at intervals of 1 min, 5 min, 15 minutes, 30 minutes, and every 15 minutes until the […] was depleted. In cases where nitrosoaniline absorption signals were quenched faster, the spectra were collected as smaller intervals typically been 1-5 minutes.\nStock solutions of thioxanthone were created by adding […] of granulated thioxanthone into a 10 mL volumetric flask with pure ethanol to give a concentration of 2.3 mM. Adding 0.1 mL of the stock solution to another 10 mL was used to create a 23 μM solution. Adding 0.1 mL to a 25 mL volumetric flask gives a concentration of −9 μM.\nStock solutions of imidazole were created by adding […] of granulated imidazole into a 10 mL volumetric flask with a 95% H2O: 5% ethanol or pure ethanol to give a concentration of […]. […]\nSome thioxanthone decomposition experiments were performed by using a home-built 365 nm LED. […] The light intensity was measured to be roughly 2000 mW/m^2 from each LED. […]"}, "[2]": {"experiment": "Riboflavin 5-phosphate sodium salt degradation under 450 nm LED with or without sodium ascorbate", "format": "physicochemical", "method": "Stock solutions of Riboflavin5-phosphate sodium salt were created by adding 2.2 mg of granulated Riboflavin 5-phosphate sodium salt Riboflavin 5-phosphate sodium salt into a 10 mL volumetric flask with a 95% H2O: 5% ethanol to give a concentration of 0.46 mM. Adding 1 mL of the stock solution to another 10 mL was used to create a 46 μM solution. Adding 0.5 mL to a 25 mL volumetric flask gives a concentration of 9 μM.\nStock solutions of sodium ascorbate were created by adding 9.1 mg of granulated sodium ascorbate into a 10 mL volumetric flask with a 95% H2O: 5% ethanol to give a concentration of 4.6 mM. Adding 0.1 mL of the stock solution to another 10 mL was used to create a 46 μM solution. Adding 0.05 mL to a 25 mL volumetric flask gives a concentration of −9 μM, which could be multiplied to give the number of equivalents needed for each study.\nFor some riboflavin decomposition experiments a home-built 450 nm LED was used to irradiate samples. The quartz cuvette was placed 11.5 cm away from the light source and the measured intensity was 1750 mW/m^2.\nA JASCO V-750 spectrophotometer (from JASCO Easton, Maryland, USA) was used for recording UV-Vis spectra. Quartz cuvettes were used for sample irradiations as they have an optical window that allows for spectra to be collected as low as 200 nm. IgorPro8 software was used for plotting and processing the data.\nFractional RF Absorbance is the absorbance signal at 446 nm measured at an irradiation time divided by the absorbance signal at 446 nm at t=0. The concentration of RF was held constant at 46 μM, denoted by “1” and the concentration of sodium ascorbate (SA) was varied in multiples of 46 μM, denoted by “1”, “5”, “10”, “50” (i.e. 46 μM, 230 μM, 460 μM, and 2.3 mM).\nTo test the depletion of Riboflavin 5-phosphate sodium salt (RF) in presence of sodium ascorbate, experiments were run in triplicate using a 450 nm LED with a measured power of 1750 mW/m2. […]"}, "[3]": {"conditions": "in methanol solutions; cited from earlier work"}}, "data": [{"smiles": "c1c[nH]cn1", "note": "[imidazole]", "values": [{"measurement": "effect of added imidazole on rate of thioxanthone degradation", "setting": "[1]; thioxanthone 23 μM, imidazole 23 μM to 230 μM, 365 nm", "value": "increases the rate of thioxanthone degradation"}]}, {"smiles": "Cc1cc2nc3c(=O)[nH]c(=O)nc-3n(C[C@H](O)[C@H](O)[C@H](O)COP(=O)([O-])O)c2cc1C.[Na+]", "note": "[Riboflavin 5-phosphate sodium salt]", "values": [{"measurement": "loss of absorbance signal at 446 nm", "setting": "[2]; RF 46 μM by itself, 450 nm LED 1750 mW/m2, after 30 minutes of irradiation", "value": "roughly 50%"}, {"measurement": "loss of absorbance signal at 446 nm", "setting": "[2]; RF 46 μM with 5× sodium ascorbate (230 μM), 450 nm LED, in about 10 minutes", "value": "roughly 50%"}, {"measurement": "loss of absorbance signal at 446 nm", "setting": "[2]; RF 46 μM with 10× sodium ascorbate (460 μM), 450 nm LED, in about 10 minutes", "value": "roughly 50%"}]}, {"smiles": "O=c1c2ccccc2sc2ccccc12", "note": "[thioxanthone, reference compound]", "values": [{"measurement": "triplet quantum yield", "setting": "[3]", "value": 0.56}, {"measurement": "depletion of thioxanthone", "setting": "[1]; thioxanthone 23 μM in ethanol, 365 nm irradiation", "value": "complete after two hours of irradiation"}]}]}
